Target: T1, MyD88^TIR (Homo sapiens, UniProt Q99836)
T1 construct: MyD88 (residues 148–296); 6xHis; made in house; host or cells: E. coli BL21 (DE3)
Experiment: T‐Surf phage library (P8 and P3) selection against MyD88^TIR, four rounds, NGS read counts
Format: binding
Conditions: for Population: 4th round of selection against MyD88 TIR, share of NGS reads; for P3_MyD88 Rank (after) / P3_MyD88 Rank (before): P3 library; for P8_MyD88 Rank (after) / P8_MyD88 Rank (before): P8 library
Outline: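 P8 and P3 T‐Surf libraries panned against plate-coated TIR domains (5 µg mL^−1), 1 h binding at RT, acid elution and TG1/helper-phage amplification per round. After four rounds, pools were PCR-barcoded and sequenced (NovaSeq, 100 bp paired-end, Phred ≥30); peptides ranked by read counts.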

[1] = P3_MyD88 pool: P3 T-Surf phage library
[2] = P8_MyD88: rank by count after grouping
[3] = P8_MyD88: rank by count before grouping
[4] = selection against MyD88 TIR, rank by count after grouping
[5] = selection against MyD88 TIR, rank by count before grouping
[6] = selection against MyD88, rank by count after grouping
[7] = selection against MyD88, rank by count before grouping
[8] = P3_MyD88: rank by count after grouping
[9] = P3_MyD88: rank by count before grouping
[10] = selection against MyD88, rank after grouping
[11] = selection against MyD88, rank before grouping
[12] = 4R selection against MyD88, rank after grouping
[13] = 4R selection against MyD88, rank before grouping
[14] = P8_MyD88 pool: P8 T-Surf phage library
[15] = P8_MyD88: rank by NGS read count after grouping
[16] = P8_MyD88: rank by NGS read count before grouping

T1 sequence (Q99836 148-296): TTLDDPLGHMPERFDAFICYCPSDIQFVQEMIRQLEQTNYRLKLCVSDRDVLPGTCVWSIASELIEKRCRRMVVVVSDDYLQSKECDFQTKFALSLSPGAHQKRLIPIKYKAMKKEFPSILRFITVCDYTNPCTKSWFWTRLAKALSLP

LNWGDPYFWSKLRYAM
Population [1]: 0.00291%

PQELEWFHKRLVRLIL
Rank (after) [2]: 455
Rank (before) [3]: 3496

YTELTSSGFHTFRDND
P3_MyD88 Rank (after) [4]: 198
P3_MyD88 Rank (before) [5]: 1713

DPQDLEWFYERLFSR
Rank (after) [2]: 450
Rank (before) [3]: 1113

LGYHWVDWEDLLSIEE
P8_MyD88 Rank (after) [6]: 730
P8_MyD88 Rank (before) [7]: 3235

NQWRNALTAAAYMSCR
Rank (after) [8]: 463
Rank (before) [9]: 3492

DPQDLDWFYERLEPV
P8_MyD88 Rank (after) [10]: 530
P8_MyD88 Rank (before) [11]: 2783

MVGGDTFHDFLDIISM
P8_MyD88 Rank (after) [12]: 655
P8_MyD88 Rank (before) [13]: 3677

DIQWALQKLMQIMEAF
P8_MyD88 Rank (after) [6]: 676
P8_MyD88 Rank (before) [7]: 3070

DWLPGRTLFENLWASV
Rank (after) [2]: 152
Rank (before) [3]: 164
Population [14]: 0.00886%

LVAHEITKKLKSFATI
P3_MyD88 Rank (after) [12]: 641
P3_MyD88 Rank (before) [13]: 2309

YASYDDNDYYWVTHVLLRPM
Rank (after) [2]: 139
Rank (before) [3]: 255

YYLDPSHLRKQSGESERL
P3_MyD88 Rank (after) [6]: 728
P3_MyD88 Rank (before) [7]: 1459

DFLNWFIAPNSTVIEN
Rank (after) [2]: 457
Rank (before) [3]: 2364

TSHFLDSYWAMFELNM
Rank (after) [2]: 140
Rank (before) [3]: 152
Population [14]: 0.01%

EWIREQLRPALKERL
Rank (after) [8]: 112
Rank (before) [9]: 995

YASCDDFDYYLETAVLLRHL
P8_MyD88 Rank (after) [10]: 570
P8_MyD88 Rank (before) [11]: 1770

WALNELLQILHARELF
Population [14]: 0.00617%

CALDELLHILHARELF
P8_MyD88 Rank (after) [6]: 724
P8_MyD88 Rank (before) [7]: 1346

KEVEVWRDALTKVVGL
P3_MyD88 Rank (after) [6]: 713
P3_MyD88 Rank (before) [7]: 3606

DHLDPSHLRKQSGEFG
P3_MyD88 Rank (after) [6]: 734
P3_MyD88 Rank (before) [7]: 1991

LGYKRIDWEYFVGIED
P8_MyD88 Rank (after) [10]: 573
P8_MyD88 Rank (before) [11]: 3354

VQWEDPWFWDKLAYEM
Rank (after) [2]: 460
Rank (before) [3]: 2253

ELDFSHFWLFDGDAGEEP
P8_MyD88 Rank (after) [4]: 229
P8_MyD88 Rank (before) [5]: 476

LGYHWRDWEYFVGLED
P8_MyD88 Rank (after) [4]: 280
P8_MyD88 Rank (before) [5]: 3302

WDFASDMEQVWDRLYY
Rank (after) [2]: 444
Rank (before) [3]: 1582

DMQDIEWFYVKLIVSI
P8_MyD88 Rank (after) [6]: 754
P8_MyD88 Rank (before) [7]: 3064

RELGVVDDGSVSALEM
Rank (after) [8]: 410
Rank (before) [9]: 2692

EWVWDYLLPNLESPAG
Rank (after) [2]: 437
Rank (before) [3]: 3162

LVAHEISNNMKIFATI
Rank (after) [8]: 143
Rank (before) [9]: 2283

WDFASTMEQLWARLYY
P8_MyD88 Rank (after) [10]: 498
P8_MyD88 Rank (before) [11]: 1587

WDFSGNMKQALDRLCY
P8_MyD88 Rank (after) [12]: 613
P8_MyD88 Rank (before) [13]: 1571

SSFREDLWRLLELSKK
Population [1]: 0.00437%

DSLFWDRLLYSL
Population [14]: 0.00732%

GWAWDYLLPNLEGPAG
P8_MyD88 Rank (after) [6]: 703
P8_MyD88 Rank (before) [7]: 2275

DLVWDYLLPNLEGPAG
Population [14]: 0.00886%

DPQGLGWFYERLVSLF
P8_MyD88 Rank (after) [4]: 223
P8_MyD88 Rank (before) [5]: 2678

WDFASSSWALDELLRILY
P8_MyD88 Rank (after) [10]: 550
P8_MyD88 Rank (before) [11]: 1585

WALNELLKILYANETM
Population [14]: 0.0108%

DWVLDYLLPNLERPAG
Rank (after) [2]: 424
Rank (before) [3]: 2396

DWVWDELLKILYANETM
P8_MyD88 Rank (after) [12]: 647
P8_MyD88 Rank (before) [13]: 2457

NQWRNALTAAANLGGL
P3_MyD88 Rank (after) [6]: 701
P3_MyD88 Rank (before) [7]: 3513

WALNELLEILYANETM
P8_MyD88 Rank (after) [12]: 663
P8_MyD88 Rank (before) [13]: 1535

PQDLDWFYERLVSLL
Rank (after) [2]: 101
Rank (before) [3]: 120
Population [14]: 0.0189%

SSYRESLRRLPALSKK
P3_MyD88 Rank (after) [6]: 739
P3_MyD88 Rank (before) [7]: 3266

DWVWDYMLTNLEGPAG
P8_MyD88 Rank (after) [6]: 708
P8_MyD88 Rank (before) [7]: 2455

DPLGQVRLSFRLFRQI
P8_MyD88 Rank (after) [6]: 748
P8_MyD88 Rank (before) [7]: 2610

LGYQWIDWEFFVGIED
P8_MyD88 Rank (after) [6]: 756
P8_MyD88 Rank (before) [7]: 3321

KNLLNELVSKNIRTFM
Population [1]: 0.00466%

RFWERLRYMIPEVSHQ
P3_MyD88 Rank (after) [12]: 598
P3_MyD88 Rank (before) [13]: 2545

FISDLYEALTRAGILA
Rank (after) [15]: 964
Rank (before) [16]: 1341

RISAFHQQLVMALKERLP
P3_MyD88 Rank (after) [4]: 263
P3_MyD88 Rank (before) [5]: 1105

GFREGLWRLLELSKK
P3_MyD88 Rank (after) [12]: 669
P3_MyD88 Rank (before) [13]: 1819

SGQAVTEDKLGWLSNP
P8_MyD88 Rank (after) [6]: 682
P8_MyD88 Rank (before) [7]: 1660

DPQDLEWFYERLVILF
Rank (after) [2]: 446
Rank (before) [3]: 2849

SENYATSPWALMNWC
P3_MyD88 Rank (after) [12]: 655
P3_MyD88 Rank (before) [13]: 2985

SLRQNLVSNLLEEFKR
Rank (after) [8]: 480
Rank (before) [9]: 3075

DPHDLDWFYERLVSLL
Rank (after) [2]: 143
Rank (before) [3]: 1072

LKWGSVFLEQTALCD
P3_MyD88 Rank (after) [4]: 222
P3_MyD88 Rank (before) [5]: 2409

YASYDDNDYYWMTHVLLRHM
P8_MyD88 Rank (after) [6]: 771
P8_MyD88 Rank (before) [7]: 1816

SSFREGLWRLVYLSKK
P3_MyD88 Rank (after) [10]: 538
P3_MyD88 Rank (before) [11]: 3160

SPWALYELVEILTAYK
Rank (after) [2]: 185
Rank (before) [3]: 251

WDFASNMEQFWIVCI
P8_MyD88 Rank (after) [6]: 706
P8_MyD88 Rank (before) [7]: 1619

DLYDILYLYGRHTIFV
Rank (after) [15]: 881
Rank (before) [16]: 2584

Reference: article PMC11714206, “Massively Parallel Screening of Toll/Interleukin‐1 Receptor (TIR)‐Derived Peptides Reveals Multiple Toll‐Like Receptors (TLRs)‐Targeting Immunomodulatory Peptides” (Advanced Science, 2024)
